Measurements from BindingDB's records for doi:10.7270/Q2Q52NH6 (Catholic University of Daegu, 2017).

How the values were obtained:
[1] = target: T1, Tyrosine-protein phosphatase non-receptor type 1 (Homo sapiens, UniProt P18031); experiment: PTP1B Inhibitory Assay; details: pH 6
T1 sequence (P18031 whole entry): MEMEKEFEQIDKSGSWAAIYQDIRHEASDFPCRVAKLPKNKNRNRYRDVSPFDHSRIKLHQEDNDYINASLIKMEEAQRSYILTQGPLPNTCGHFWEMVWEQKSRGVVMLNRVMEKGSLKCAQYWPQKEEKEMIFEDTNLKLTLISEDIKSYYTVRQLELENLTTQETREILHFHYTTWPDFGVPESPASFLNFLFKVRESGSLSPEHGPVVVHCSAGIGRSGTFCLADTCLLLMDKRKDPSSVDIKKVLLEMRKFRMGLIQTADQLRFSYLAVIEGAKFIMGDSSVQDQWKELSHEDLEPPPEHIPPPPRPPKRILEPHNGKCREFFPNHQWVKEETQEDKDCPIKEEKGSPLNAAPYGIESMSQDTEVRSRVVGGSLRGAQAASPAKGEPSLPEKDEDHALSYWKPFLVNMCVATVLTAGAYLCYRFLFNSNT
Procedure: PTP1B activity was measured by adding 2mM p-NPP and PTP1B in a 50 mM citrate buffer (pH 6.0, 0.1 M NaCl, 1 mMEDTA, and 1 mM dithiothreitol), with or without tested compounds. The plate was pre-incubated at 37 °C for 10 min, and then 50 μL of p-NPP in buffer was added. After incubating at 37 °C for 30 min, the reaction was then terminated with 1 N NaOH.

[2] = target: Acetylcholinesterase (Homo sapiens, UniProt P22303); experiment: Acetylcholinesterase Inhibitory Assay; details: pH 8; 25 °C
Procedure: Briefly, 140 μL of sodium phosphate buffer (pH 8.0), 20 μL of each tested compound with different concentrations (4, 20, and 100 μM) and 20 μL enzyme solution were mixed and incubated at room temperature for 15 min. The reactions were initiated by the addition of 10 μL of 0.01 M 5,5'-dithiobis(2-nitrobenzoic acid) (DTNB) and 10 μL of 0.075 ATCI. […] The reaction was independently experimented for three times and recorded in 96-well microplates using a microplate reader (VersaMax).

[3] = target: T1, Tyrosine-protein phosphatase non-receptor type 1; experiment: Kinetic Analysis
Procedure: The reaction mixtures contained in various different concentrations of p-NPP as a PTP1B substrate in the presence or absence of the active compound. The kinetic analysis was evaluated for Michaelis-Menten plot, Lineweaver-Burk plot, and Dixon plot. The Michaelis constant (Km), maximum velocity (Vmax), and the inhibition constants (Ki) were determined by using Sigma Plot software (13.0 software, SPCC Inc., Chicago, IL, USA).

Sequence of Acetylcholinesterase (P22303 whole entry): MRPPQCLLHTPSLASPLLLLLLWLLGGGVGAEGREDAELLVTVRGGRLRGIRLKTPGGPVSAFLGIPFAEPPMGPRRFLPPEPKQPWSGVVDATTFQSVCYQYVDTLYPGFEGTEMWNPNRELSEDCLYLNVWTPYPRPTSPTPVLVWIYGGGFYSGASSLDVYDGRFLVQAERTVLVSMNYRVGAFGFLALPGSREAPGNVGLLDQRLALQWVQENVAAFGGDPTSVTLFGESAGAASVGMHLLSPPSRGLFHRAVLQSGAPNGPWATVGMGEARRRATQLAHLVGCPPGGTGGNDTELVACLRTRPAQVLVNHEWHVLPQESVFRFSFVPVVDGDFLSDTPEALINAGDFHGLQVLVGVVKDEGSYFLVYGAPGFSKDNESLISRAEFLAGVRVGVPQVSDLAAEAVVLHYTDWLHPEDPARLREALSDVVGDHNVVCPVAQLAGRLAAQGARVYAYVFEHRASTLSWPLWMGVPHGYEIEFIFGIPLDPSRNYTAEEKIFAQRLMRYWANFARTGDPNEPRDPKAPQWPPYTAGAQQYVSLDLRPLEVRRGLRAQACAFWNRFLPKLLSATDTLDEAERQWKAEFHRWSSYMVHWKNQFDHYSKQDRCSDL

Structure (SMILES)	IC50 [1] [µM]	IC50 [2] [µM]	Ki [3] [nM]
O=c1c(O[C@@H]2O[C@H](CO)[C@@H](O)[C@H](O)[C@H]2O)c(-c2ccc(O)c(O)c2)oc2cc(O)cc(O)c12 [2-(3,4-dihydroxyphenyl)-5,7-dihydroxy-3-[(2S,3R,4S,5S,6R)-3,4,5-trihydroxy-6-(hydroxymethyl)oxan-2-yl]oxychromen-4-one]	100	84.8	–
O=c1c(O)c(-c2ccc(O)cc2)oc2cc(O[C@@H]3O[C@H](CO)[C@@H](O)[C@H](O)[C@H]3O)cc(O)c12 [Kaempferol 7-O-β-D-glucoside (4)]	100	63.9	–
O=c1cc(-c2ccc(O)cc2)oc2cc(O)cc(O)c12 [Naringenin, 18]	100	64.3	–
O=c1oc2c(O)c(O)cc3c(=O)oc4c(O)c(O)cc1c4c23 [Elagic Acid]	7.73	100	2800
COc1cc(C2Oc3c(OC)cc(CCCO)cc3C2CO)ccc1O[C@@H]1OC(CO)[C@@H](O)C(O)[C@@H]1O (stereo partly drawn) [dihydrodehydrodiconifeyl alcohol 9'-O-β-D-glucose (19)]	100	92.8	–
O=C(O)[C@H]1O[C@@H](Oc2cc(O)c3c(=O)cc(-c4ccc(O)c(O)c4)oc3c2)[C@H](O)[C@@H](O)[C@@H]1O [Luteolin 7-O-β-D-glucuronide (14)]	38.1	88.1	–
O=c1c(O[C@@H]2O[C@H](CO)[C@@H](O)[C@H](O)[C@H]2O)c(-c2ccc(O)cc2)oc2cc(O)cc(O)c12 [Kaempferol 3-O-β-D-glucoside (6)]	60.7	89.6	–
O=C(OCCCCOc1cc(O)c2c(=O)cc(-c3ccc(O)c(O)c3)oc2c1)[C@H]1O[C@@H](O)[C@H](O)[C@@H](O)[C@@H]1O [Luteolin 7-O-β-D-glucuronide butyl ester (16)]	100	76.9	–
O=c1c(O)c(-c2ccc(O)c(O[C@@H]3O[C@H](CO)[C@@H](O)[C@H](O)[C@H]3O)c2)oc2cc(O)cc(O)c12 [Quercetin 3'-O-β-D-glucoside (12)]	100	89.2	–
O=c1cc(-c2ccc(O)cc2)oc2cc(O[C@@H]3O[C@H](CO)[C@@H](O)[C@H](O)[C@H]3O)cc(O)c12 [NSC-407303]	100	100	–
O=C(O[C@H]1OC(CO)[C@@H](O)[C@@H]2OC(=O)c3cc(O)c(O)c(c3O)-c3c(O)c(O)cc(c3O)C(=O)OC12)c1cc(O)c(O)c(O)c1 (some centres not stated) [Agritannin (1)]	17	60.2	–
COC(=O)[C@H]1O[C@@H](Oc2cc(O)c3c(=O)cc(-c4ccc(O)cc4)oc3c2)C(O[C@@H]2OC(CO)[C@@H](O)C(O)[C@@H]2O)[C@H]1O (some centres not stated) [Agriflavone (2)]	100	63.4	–
O=C(OCOc1cc(O)c2c(=O)cc(-c3ccc(O)c(O)c3)oc2c1)[C@H]1O[C@@H](O)[C@H](O)[C@@H](O)[C@@H]1O [Luteolin 7-O-β-D-glucuronide methyl ester (15)]	49.1	65.9	–
O=C(O)[C@H]1O[C@@H](Oc2cc(O)c3c(=O)cc(-c4ccc(O)cc4)oc3c2)[C@H](O)[C@@H](O)[C@@H]1O [apigenin-7-O-betaD-glucuronic acid]	7.14	63	2600
O=c1cc(-c2ccc(O)c(O)c2)oc2cc(O[C@@H]3O[C@H](CO)[C@@H](O)[C@H](O)[C@H]3O)cc(O)c12	71.6	74.7	–
O=c1cc(-c2ccc(O)c(O[C@@H]3O[C@H](CO)[C@@H](O)[C@H](O)[C@H]3O)c2)oc2cc(O)cc(O)c12 [Luteolin 3'-O-β-D-glucoside (17)]	100	74.6	–
O=C(O)[C@H]1O[C@@H](Oc2cc(O)c3c(=O)c(O)c(-c4ccc(O)cc4)oc3c2)[C@H](O)[C@@H](O)[C@@H]1O [Kaempferol 7-O-β-D-glucuronide (5)]	48.3	64	–
O=c1c(O)c(-c2ccc(O)c(O)c2)oc2cc(O)cc(O)c12 [2-(3,4-dihydroxyphenyl)-3,5,7-trihydroxy-chromone;hydrate]	–	72.8	–
